# Assay results as given in publication PMC6732362, “Cancer-associated variants of human NQO1: impacts on inhibitor binding and cooperativity” (Bioscience Reports, 2019).
# Assays:
# human NQO1 p.R139W [1] = target: T1, human NQO1 p.R139W (Homo sapiens, UniProt P15559, R139W); assay: biochemical
# human NQO1 p.R139W [2] = target: T1, human NQO1 p.R139W; assay: Differential scanning fluorimetry (FAD release on thermal denaturation); format: binding; parameters: hexahistidine; made in house; host or cells: Escherichia coli; conditions: for effect on stability towards thermal denaturation (ΔTm): p.R139W, concentration-dependent
# human NQO1 p.R139W [3] = target: T1, human NQO1 p.R139W
# human wild-type NQO1 [4] = target: T2, human wild-type NQO1 (Homo sapiens, UniProt P15559)
# human wild-type NQO1 [5] = target: T2, human wild-type NQO1; assay: Differential scanning fluorimetry (FAD release on thermal denaturation); format: binding; parameters: hexahistidine; made in house; host or cells: Escherichia coli; conditions: for effect on stability towards thermal denaturation (ΔTm): wild-type NQO1, concentration-dependent
# human wild-type NQO1 [6] = target: T2, human wild-type NQO1; assay: biochemical
# human NQO1 p.P187S = target: T3, human NQO1 p.P187S (Homo sapiens, UniProt P15559, P187S); assay: Differential scanning fluorimetry (FAD release on thermal denaturation); format: binding
# T3 construct: hexahistidine; made in house; host or cells: Escherichia coli
# [7] = wild-type, Dixon and [S]/v plots (data not shown)
# T1 sequence (P15559 whole entry R139W): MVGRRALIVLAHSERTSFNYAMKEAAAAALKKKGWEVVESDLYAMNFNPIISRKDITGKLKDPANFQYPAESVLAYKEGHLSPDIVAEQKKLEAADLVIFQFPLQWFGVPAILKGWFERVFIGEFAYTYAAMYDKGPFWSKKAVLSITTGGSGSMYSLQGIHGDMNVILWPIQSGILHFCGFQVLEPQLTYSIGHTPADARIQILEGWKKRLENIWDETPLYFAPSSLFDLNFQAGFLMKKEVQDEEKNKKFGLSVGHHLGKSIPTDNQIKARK
# T2 sequence (P15559 whole entry): as the sequence (P15559 whole entry R139W) above, with W139R counted along it
# T3 sequence (P15559 whole entry P187S): as the sequence (P15559 whole entry R139W) above, with W139R, P187S counted along it
Ki (human NQO1 p.R139W [1]) [mM],"Kd (human NQO1 p.R139W [2]; p.R139W 2 μM dimer, from ΔTm vs inhibitor concentration, HEPES-OH pH 7.3, read-out: KD,app) [mM]",effect on stability towards thermal denaturation (ΔTm) (human NQO1 p.R139W [2]),"Hill coefficient (h) (human NQO1 p.R139W [3]; p.R139W, no additional FAD, 70 μM DCPIP, 300 μM NADH, mean of three Hill plots ± SD)","type of inhibition (human wild-type NQO1 [4]; NQO1, Dixon and [S]/v plots)","Hill coefficient (h) (human wild-type NQO1 [4]; wild-type NQO1, no additional FAD, 70 μM DCPIP, 300 μM NADH, mean of three Hill plots ± SD)","Kd (human wild-type NQO1 [5]; wild-type NQO1 2 μM dimer, from ΔTm vs inhibitor concentration, HEPES-OH pH 7.3, read-out: KD,app) [mM]",effect on stability towards thermal denaturation (ΔTm) (human wild-type NQO1 [5]),Ki (human wild-type NQO1 [6]) [mM],effect on stability towards thermal denaturation (ΔTm) (human NQO1 p.P187S),type of inhibition with respect to NADH (human NQO1 p.R139W [3]; p.R139W (data not shown)),type of inhibition with respect to NADPH (human NQO1 p.R139W [3]; p.R139W (data not shown)),type of inhibition with respect to NADH (human wild-type NQO1 [4]; [7]),type of inhibition with respect to NADPH (human wild-type NQO1 [4]; [7]),Structure (SMILES)
13.5 ± 3.22,18.2 ± 5.2,stabilized,0.92 ± 0.05,mixed,0.91 ± 0.06,6 ± 0.9,stabilized,14 ± 4.34,no detectable effect,–,–,–,–,"NC(=O)c1cccnc1 [Nicotinamide, nicotinamide]"
–,–,destabilised,–,–,–,–,destabilised,0.375 ± 0.129,destabilised,uncompetitive,mixed,mixed,competitive,"Oc1ccc(/C=C/c2cc(O)cc(O)c2)cc1 [Resveratrol, resveratrol]"
